In general, inhibition refers to the share of the control response that was lost under treatment. For orientation: IC50 means the midpoint of a concentration-inhibition curve.

Molecules are shown by their SMILES.

From patent US20110251379A1, “COMPOUNDS USEFUL FOR TREATING NEURODEGENERATIVE DISORDERS” (Satori Pharmaceuticals, Inc., priority 2010, published 2011) come the findings set out here.

The first assay has as its system amyloid-beta (1-42) peptide. As to the kind of experiment: ELISA assay of amyloid-beta (1-42) in conditioned media of 2B7 cells. Format: cell-based. To be noted: Aβ-42, 100 umol/L; read-out: % Inhibition (range). In short, it runs like this: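 2B7 cells were treated with compounds for 5 hours at 37° C in media with 1% DMSO. Conditioned media, diluted 1:2 in blocking buffer, went into a sandwich ELISA with 6E10 capture and an HRP-labelled detection antibody, read by TMB at 450 nm. Values came from an Aβ peptide standard curve.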
Consider `C[C@@H]1C[C@H]([C@@H]2OC(=O)OC2(C)C)OC2C1[C@@]1(C)CC[C@@]34C[C@@]35CC[C@H](O)C(C)(C)[C@@H]5CC[C@H]4[C@]1(C)[C@H]2O` (stereo partly shown), for which the inhibition at 100 µM was 25 to 75%.

Still in this assay, the particulars now being: Aβ-42, 2B7 cells, 5 hours; read-out: IC50 range.
With `CCC(=O)OC(C1CC(C)C2C(O1)C(O)C1(C)C3CCC4C(C)(C)C(OC5OCC(O)C(O)C5O)CCC45CC35CCC21C)C(C)(C)O` (stereo not shown), the 50% inhibitory concentration (IC50) was at most 1 µM.
Take `CNCC1CC(C)C2C(O1)C(O)C1(C)C3CCC4C(C)(C)C(OC5OCC(O)C(O)C5O)CCC45CC35CCC21C` (stereo not shown): the half-maximal inhibitory concentration (IC50) is over 10 µM.
As for `CC(=O)OC(C1CC(C)C2C(O1)C(O)C1(C)C3CCC4C(C)(CCC(O)C4(C)C)C3=CCC21C)C(C)(C)O` (stereo not shown), the IC50 was at most 1 µM.
`CC(=O)OC(C1CC(C)C2C(O1)C(OC(N)=O)C1(C)C3CCC4C(C)(C)C(OC(N)=O)CCC45CC35CCC21C)C(C)(C)O` (stereo not shown): the half-maximal inhibitory concentration (IC50) is over 10 µM.
In the case of `CC(=O)OC(C1CC(C)C2C(O1)C(OC(=O)C(F)(F)F)C1(C)C3CCC4C(C)(C)C(OC(=O)C(F)(F)F)CCC45CC35CCC21C)C(C)(C)O` (stereo not shown), the concentration for half-maximal inhibition (IC50) is at most 1 µM.
Turning to `CC(=O)OC(C1CC(C)C2C(O1)C(OC(=O)C(F)(F)F)C1(C)C3CCC4C(C)(C)C(O)CCC45CC35CCC21C)C(C)(C)O` (stereo not shown), the concentration for half-maximal inhibition (IC50) was at most 1 µM.
As for `CC(=O)OC(C1CC(C)C2C(O1)C(OC(N)=O)C1(C)C3CCC4C(C)(C)C(O)CCC45CC35CCC21C)C(C)(C)O` (stereo not shown), the half-inhibitory concentration (IC50) is over 10 µM.
For `CC(=O)OC(C1CC(C)C2C(O1)C(O)C1(C)C3CCC4C(C)(C)C(OC(=O)C5CCN5)CCC45CC35CCC21C)C(C)(C)O` (stereo not shown), the 50% inhibitory concentration (IC50) is at most 1 µM.
For the compound `CCN1CCOC(OC2CCC34CC35CCC3(C)C6C(C)CC(C(OC(C)=O)C(C)(C)O)OC6C(OC(C)=O)C3(C)C5CCC4C2(C)C)C1` (stereo not shown), the IC50 was over 10 µM.
The same measure, in the same setting: next, `CC1CC(CNCc2ccccc2)OC2C1C1(C)CCC34CC35CCC(O)C(C)(C)C5CCC4C1(C)C2O` (stereo not shown): over 10 µM.
On the same count and under the same terms, the figure for `CC1CC(CNC(C)(C)C)OC2C1C1(C)CCC34CC35CCC(O)C(C)(C)C5CCC4C1(C)C2O` (stereo not shown) is over 10 µM; for `CC1CC(CN(C)C)OC2C1C1(C)CCC34CC35CCC(O)C(C)(C)C5CCC4C1(C)C2O` (stereo not shown) it is over 10 µM; for `CC1CC(CN(CC(C)(C)O)S(C)(=O)=O)OC2C1C1(C)CCC34CC35CCC(O)C(C)(C)C5CCC4C1(C)C2O` (stereo not shown) it is over 10 µM.
For `CC(=O)N(Cc1ccccc1)C(C(=O)NCc1ccccc1)C1CC(C)C2C(O1)C(O)C1(C)C3CCC4C(C)(C)C(O)CCC45CC35CCC21C` (stereo not shown), the IC50 was over 10 µM.
Consider `CC1CC(c2nnco2)OC2C1C1(C)CCC34CC35CCC(O)C(C)(C)C5CCC4C1(C)C2O` (stereo not shown), for which the IC50 is over 10 µM.
Same read-out and setting: the figure for `CC1CC(CN2CCCCC2=O)OC2C1C1(C)CCC34CC35CCC(O)C(C)(C)C5CCC4C1(C)C2O` (stereo not shown) is over 10 µM; for `CC(=O)N(C)C(C(=O)NCc1ccccc1)C1CC(C)C2C(O1)C(O)C1(C)C3CCC4C(C)(C)C(O)CCC45CC35CCC21C` (stereo not shown) it is over 10 µM; for `CC(=O)N(CC1CC(C)C2C(O1)C(O)C1(C)C3CCC4C(C)(C)C(O)CCC45CC35CCC21C)C1CCC1` (stereo not shown) it is over 10 µM.
Same read-out and setting: the figure for `CC1CC(CN2CCCC2=O)OC2C1C1(C)CCC34CC35CCC(O)C(C)(C)C5CCC4C1(C)C2O` (stereo not shown) is over 10 µM; for `CC1CC(CN2C(=O)OCC2(C)C)OC2C1C1(C)CCC34CC35CCC(O)C(C)(C)C5CCC4C1(C)C2O` (stereo not shown) it is over 10 µM; for `CC(=O)N(CC1CC(C)C2C(O1)C(O)C1(C)C3CCC4C(C)(C)C(OC(=O)c5cccnc5)CCC45CC35CCC21C)C1CCC1` (stereo not shown) it is over 10 µM.
For `CC(=O)N(CC1CC(C)C2C(O1)C(O)C1(C)C3CCC4C(C)(C)C(OC(=O)c5cccnc5)CCC45CC35CCC21C)C(C)(C)C` (stereo not shown), the 50% inhibitory concentration (IC50) is over 10 µM.
With `CC1CC(CN(C)C(=O)C(C)(C)C)OC2C1C1(C)CCC34CC35CCC(O)C(C)(C)C5CCC4C1(C)C2O` (stereo not shown), the IC50 is over 10 µM.
Consider `CC1CC(CN(C)C(=O)C(C)(C)C)OC2C1C1(C)CCC34CC35CCC(OC(=O)c3cccnc3)C(C)(C)C5CCC4C1(C)C2O` (stereo not shown), for which the 50% inhibitory concentration (IC50) was over 10 µM.
As for `CC(=O)N(Cc1ccccc1)CC1CC(C)C2C(O1)C(O)C1(C)C3CCC4C(C)(C)C(OC(=O)c5cccnc5)CCC45CC35CCC21C` (stereo not shown), the half-inhibitory concentration (IC50) lay within 1 to 10 µM.
`CC(=O)N(CC1CC(C)C2C(O1)C(O)C1(C)C3CCC4C(C)(C)C(O)CCC45CC35CCC21C)CC(C)(C)C` (stereo not shown): the half-maximal inhibitory concentration (IC50) fell in the range of 1 to 10 µM.
With `COC(=O)N(CC1CC(C)C2C(O1)C(O)C1(C)C3CCC4C(C)(C)C(O)CCC45CC35CCC21C)C(C)(C)C` (stereo not shown), the IC50 is over 10 µM.
In the case of `CC(C)NC(=O)N(Cc1ccccc1)CC1CC(C)C2C(O1)C(O)C1(C)C3CCC4C(C)(C)C(O)CCC45CC35CCC21C` (stereo not shown), the IC50 is over 10 µM.
The same measure, in the same setting: the figure for `CC(=O)N(Cc1ccccc1F)CC1CC(C)C2C(O1)C(O)C1(C)C3CCC4C(C)(C)C(O)CCC45CC35CCC21C` (stereo not shown) is 1 to 10 µM; for `CC(=O)N(Cc1cccc(F)c1)CC1CC(C)C2C(O1)C(O)C1(C)C3CCC4C(C)(C)C(O)CCC45CC35CCC21C` (stereo not shown) it is at most 1 µM.
On to `CC(=O)N(Cc1ccc(F)cc1)CC1CC(C)C2C(O1)C(O)C1(C)C3CCC4C(C)(C)C(O)CCC45CC35CCC21C` (stereo not shown), for which the 50% inhibitory concentration (IC50) is 1 to 10 µM.
For the compound `CC(=O)N(Cc1cccnc1)CC1CC(C)C2C(O1)C(O)C1(C)C3CCC4C(C)(C)C(O)CCC45CC35CCC21C` (stereo not shown), the half-inhibitory concentration (IC50) was over 10 µM.
As to `CC(=O)N(Cc1ccncc1)CC1CC(C)C2C(O1)C(O)C1(C)C3CCC4C(C)(C)C(O)CCC45CC35CCC21C` (stereo not shown), the IC50 is over 10 µM.
On the same count and under the same terms, the figure for `CC(=O)N(Cc1cc(F)cc(F)c1)CC1CC(C)C2C(O1)C(O)C1(C)C3CCC4C(C)(C)C(OC(=O)c5cccnc5)CCC45CC35CCC21C` (stereo not shown) is 1 to 10 µM.
Consider `CC(=O)N(Cc1cc(F)c(F)c(F)c1)CC1CC(C)C2C(O1)C(O)C1(C)C3CCC4C(C)(C)C(O)CCC45CC35CCC21C` (stereo not shown), for which the IC50 lay in the range of 1 to 10 µM.
Consider `CC(=O)N(Cc1cc(F)cc(F)c1)CC1CC(C)C2C(O1)C(O)C1(C)C3CCC4C(C)(C)C(OC(=O)c5ccccn5)CCC45CC35CCC21C` (stereo not shown), for which the half-inhibitory concentration (IC50) is 1 to 10 µM.
For the compound `CC1CC(CN(Cc2ccccc2)C(=O)N(C)C)OC2C1C1(C)CCC34CC35CCC(O)C(C)(C)C5CCC4C1(C)C2O` (stereo not shown), the IC50 is over 10 µM.
Regarding `CC(=O)N(CC1CC(C)C2C(O1)C(O)C1(C)C3CCC4C(C)(C)C(O)CCC45CC35CCC21C)C(C)c1ccc(F)cc1` (stereo not shown), the IC50 lay in the range of 1 to 10 µM.
Regarding `CC(=O)N(Cc1cc(F)cc(F)c1)CC1CC(C)C2C(O1)C(O)C1(C)C3CCC4C(C)(C)C(OC(=O)c5ccncc5)CCC45CC35CCC21C` (stereo not shown), the half-inhibitory concentration (IC50) was over 10 µM.
Regarding `CC(=O)N(Cc1cc(F)cc(F)c1)CC1CC(C)C2C(O1)C(O)C1(C)C3CCC4C(C)(C)C(OC(=O)C5CN(C(=O)OC(C)(C)C)C5)CCC45CC35CCC21C` (stereo not shown), the IC50 is over 10 µM.
Take `CC1CC(C(OC(=O)C(C)(C)C)C(C)(C)O)OC2C1C1(C)CCC34CC35CCC(O)C(C)(C)C5CCC4C1(C)C2O` (stereo not shown): the half-inhibitory concentration (IC50) is over 1 µM.
As to `CC1CC(C2OC(=O)OC2(C)C)OC2C1C1(C)CCC34CC35CCC(O)C(C)(C)C5CCC4C1(C)C2O` (stereo not shown), the concentration for half-maximal inhibition (IC50) is over 10 µM.
Turning to `CC(=O)N(Cc1cc(F)cc(F)c1)CC1CC(C)C2C(O1)C(O)C1(C)C3CCC4C(C)(C)C(OC(=O)CN5CCOCC5)CCC45CC35CCC21C` (stereo not shown), the IC50 is over 10 µM.
On the same count and under the same terms, next, `CC(=O)N(Cc1cc(F)cc(F)c1)CC1CC(C)C2C(O1)C(O)C1(C)C3CCC4C(C)(C)C(OC(=O)Cc5cccnc5)CCC45CC35CCC21C` (stereo not shown): over 10 µM; `CC(=O)OC(C1CC(C)C2C(O1)C(O)C1(C)C3CCC4C(C)(C)C(OC(=O)C5(C)COC5)CCC45CC35CCC21C)C(C)(C)O` (stereo not shown): at most 1 µM.
